Data from US6638529B2, “Amide-based cationic lipids” (Genta Incorporated, priority 1995, dated 2003).

What was measured:
COS-7 cells [1] = assay: Transient transfection of CAT plasmid pG1035 with cationic lipids, CAT activity in lysate; assay type: cell-based, African green monkey; settings: for Mean (transient transfection efficiency; CAT activity normalized to total protein): CAT plasmid pG1035 2 μg/mL, lipid 18 μg/mL (9 to 1 lipid to DNA), triplicate; for REL (transient transfection efficiency relative to best lipid in the cell line): CAT plasmid pG1035, 9 to 1 lipid to DNA
Protocol: (§1) Cell lines were plated at 1.5×10^5 cells/well in a 12 well plate format on the day before tranfection. […] This small quantity of ethanol was confirmed to have no adverse effect on any of the cell lines. […] Cell lysates were prepared by rinsing twice in PBS and then were treated with 0.5 mL of 1× Reporter Lysis Buffer (Promega, Madison, Wis.). The lysed cells were pipetted into 1.5 mL tubes and frozen in CO2/EtOH once and thawed. The crude lysate was then clarified by microcentrifugation at 14,000 rpm for 10 minutes to pellet cell debris. The clear supernatant was recovered and assayed directly or stored at -20° C. for assay later. The cell lysates were then assayed for CAT activity and the total protein concentration was determined as described below in Example 7. The CAT activity was normalized to total protein and plotted as shown. This assay was performed generally as follows. First, the following reaction mixture was prepared for each sample: […] Louis, Mo.), 4 mL ^14C-chloramphenicol, 50 nCi/mL (Dupont, Boston, Mass.), and 5 mL mg/mL n-butyryl coenzyme A (Pharmacia, Piscataway, N.J.). […] The original stock CAT was at 7000 Units/mL. […] Approximately […] of reaction mixture was then added to each sample tube, which was then typically incubated for approximately 1 hour in a 37° C. oven. The reaction was terminated by adding […] pristane:mixed xylenes (2:1) (Sigma, St. Louis, Mo.) to each tube. The tubes were then vortexed for 2 minutes and spun for 5 minutes. Approximately […] of the upper phase was transferred to a scintillation vial with 5 mL Scintiverse (Fisher, Pittsburgh, Pa.). The sample was then counted in a scintillation counter (Packard). The plasmid pG1035 was used for transient transfections of COS-7 (ATCC # CRL-1651), SNB-19, C8161 and RD (ATCC # CCL-136) cells. pG1035 consists of a modified CAT (choramphenicol acetyl transferase) gene (named […]) inserted into the eukaryotic vector pRc/CMV (Invitrogen, San Diego, Calif.). […] created by inserting an artificial intron into the wild type CAT gene sequence in a plasmid named pG1036 (also based on pRc/CMV) using the polymerase chain reaction. […] Concentration curve standards were prepared using 6 μL of […] BSA stock solutions and 300 mL of the Coomassie reagent. The assay samples were allowed to sit for approximately 30 minutes before reading the optical absorbance at 570 nm in a microplate reader (Molecular Probes). The cells were assayed for CAT protein as described above.

C8161 cells [2] = assay: as above; assay type: cell-based, human; settings: for Mean (transient transfection efficiency; CAT activity normalized to total protein): CAT plasmid pG1035 2 μg/mL, lipid 18 μg/mL (9 to 1 lipid to DNA), triplicate; for REL (transient transfection efficiency relative to best lipid in the cell line): CAT plasmid pG1035, 9 to 1 lipid to DNA
Protocol: as §1

RD cells [3] = assay: as above; assay type: cell-based, human; settings: for Mean (transient transfection efficiency; CAT activity normalized to total protein): CAT plasmid pG1035 2 μg/mL, lipid 18 μg/mL (9 to 1 lipid to DNA), triplicate; for REL (transient transfection efficiency relative to best lipid in the cell line): CAT plasmid pG1035, 9 to 1 lipid to DNA
Protocol: as §1

SNB-19 cells [4] = assay: as above; assay type: cell-based, human; settings: for Mean (transient transfection efficiency; CAT activity normalized to total protein): CAT plasmid pG1035 2 μg/mL, lipid 18 μg/mL (9 to 1 lipid to DNA), triplicate; for REL (transient transfection efficiency relative to best lipid in the cell line): CAT plasmid pG1035, 9 to 1 lipid to DNA
Protocol: as §1

COS-7 cells [5] = assay: FITC-oligonucleotide uptake assay (nuclear fluorescence score); assay type: cell-based, African green monkey; parameters: key: 0: No nuclear fluorescence; 1: up to 20% fluorescent nuclei; 2: up to 40% fluorescent nuclei; 3: up to 60% fluorescent nuclei; 4: up to 80% fluorescent nuclei; 5: up to 100% fluorescent nuclei; settings: COS7, lipid:oligomer 9:1 or 6:1 by weight, 4-6 h
SNB-19 cells [6] = assay: as above; assay type: cell-based, human; parameters: key: 0: No nuclear fluorescence; 1: up to 20% fluorescent nuclei; 2: up to 40% fluorescent nuclei; 3: up to 60% fluorescent nuclei; 4: up to 80% fluorescent nuclei; 5: up to 100% fluorescent nuclei; settings: SNB19, lipid:oligomer 9:1 or 6:1 by weight, 4-6 h
C8161 cells [7] = assay: as above; assay type: cell-based, human; parameters: key: 0: No nuclear fluorescence; 1: up to 20% fluorescent nuclei; 2: up to 40% fluorescent nuclei; 3: up to 60% fluorescent nuclei; 4: up to 80% fluorescent nuclei; 5: up to 100% fluorescent nuclei; settings: lipid:oligomer 9:1 or 6:1 by weight, 4-6 h
RD cells [8] = assay: as above; assay type: cell-based, human; parameters: key: 0: No nuclear fluorescence; 1: up to 20% fluorescent nuclei; 2: up to 40% fluorescent nuclei; 3: up to 60% fluorescent nuclei; 4: up to 80% fluorescent nuclei; 5: up to 100% fluorescent nuclei; settings: lipid:oligomer 9:1 or 6:1 by weight, 4-6 h
[9] = FITC oligomer 3498-PS (phosphorothioate) 0.25 micromolar
[10] = FITC oligomer 3498 Chimera 0.25 micromolar
[11] = FITC oligomer 3793-2 alternating (methylphosphonate/diester, 2'-O-methyl) 0.25 micromolar

SMILES | Mean (transient transfection efficiency; CAT activity normalized to total protein) (COS-7 cells [1]) | REL (transient transfection efficiency relative to best lipid in the cell line) (COS-7 cells [1]) | Mean (transient transfection efficiency; CAT activity normalized to total protein) (C8161 cells [2]) | REL (transient transfection efficiency relative to best lipid in the cell line) (C8161 cells [2]) | Mean (transient transfection efficiency; CAT activity normalized to total protein) (RD cells [3]) | REL (transient transfection efficiency relative to best lipid in the cell line) (RD cells [3]) | Mean (transient transfection efficiency; CAT activity normalized to total protein) (SNB-19 cells [4]) | REL (transient transfection efficiency relative to best lipid in the cell line) (SNB-19 cells [4]) | Nuclear delivery of oligonucleotide (uptake score) (COS-7 cells [5]; [9]) | Nuclear delivery of oligonucleotide (uptake score) (COS-7 cells [5]; [10]) | Nuclear delivery of oligonucleotide (uptake score) (COS-7 cells [5]; [11]) | Nuclear delivery of oligonucleotide (uptake score) (SNB-19 cells [6]; [9]) | Nuclear delivery of oligonucleotide (uptake score) (SNB-19 cells [6]; [10]) | Nuclear delivery of oligonucleotide (uptake score) (SNB-19 cells [6]; [11]) | Nuclear delivery of oligonucleotide (uptake score) (C8161 cells [7]; [9]) | Nuclear delivery of oligonucleotide (uptake score) (C8161 cells [7]; [10]) | Nuclear delivery of oligonucleotide (uptake score) (C8161 cells [7]; [11]) | Nuclear delivery of oligonucleotide (uptake score) (RD cells [8]; [9]) | Nuclear delivery of oligonucleotide (uptake score) (RD cells [8]; [10]) | Nuclear delivery of oligonucleotide (uptake score) (RD cells [8]; [11])
CCCCCCCCCCCCCCCCCC(CCCCCCCCCCCCCCCCC)NC(=O)CNC(=O)CNC(=O)[C@H](CCCNCCCN)NCCCN.O=C(O)C(F)(F)F.O=C(O)C(F)(F)F.O=C(O)C(F)(F)F.O=C(O)C(F)(F)F [Compound 1-10, N^2,N^5-Bis(3-aminopropyl)-L-ornithylglycyl-N-(1-heptadecyloctadecyl)glycinamide, Tetrahydrotrifluoroacetate] | 148040 | 0.87 | 159578 | 0.8 | 124232 | 0.7 | 166179 | 0.88 | 4 (up to 80% fluorescent nuclei) | 3 (up to 60% fluorescent nuclei) | 0 | 4 (up to 80% fluorescent nuclei) | 4 (up to 80% fluorescent nuclei) | 0 | 5 (up to 100% fluorescent nuclei) | 3 (up to 60% fluorescent nuclei) | 0 | 5 (up to 100% fluorescent nuclei) | 4 (up to 80% fluorescent nuclei) | 0
CCCCCCCCCCCCCCCCCCN(CCCCCCCCCCCCCCCCCC)C(=O)CC[C@H](NC(=O)[C@H](CCCNCCCN)NCCCN)C(=O)O.Cl.Cl.Cl.Cl [Compound 2-5, N^2-[N^2,N^5-Bis(3-aminopropyl)-L-ornithyl]-N,N-dioctadecyl-L-glutamine, tetrahydrochloride] | 55598 | 0.33 | 137710 | 0.69 | 73921 | 0.41 | 103280 | 0.55 | 2 (up to 40% fluorescent nuclei) | 2 (up to 40% fluorescent nuclei) | 1 (up to 20% fluorescent nuclei) | 3 (up to 60% fluorescent nuclei) | 3 (up to 60% fluorescent nuclei) | 3 (up to 60% fluorescent nuclei) | 3 (up to 60% fluorescent nuclei) | 4 (up to 80% fluorescent nuclei) | 3 (up to 60% fluorescent nuclei) | 3 (up to 60% fluorescent nuclei) | 4 (up to 80% fluorescent nuclei) | 4 (up to 80% fluorescent nuclei)
